PubChem BioAssay (NCI)
Several values for one entry are separate records, joined by “and”; a condition that tells them apart may be missing. Identical values can stand only once.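 All cell lines were grown in 96-well plates and treated with compound for 48 hours. GI50 marks 50% less growth. TGI is the concentration that stops growth completely.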

Assays:
Assay in all cases: NCI anticancer screen, dose series, 48 h
[1] = test system: NCI-H226 lung
[2] = test system: SF-268 CNS
[3] = test system: HOP-62 NSCLC
[4] = test system: CAKI-1 renal
[5] = test system: EKVX NSCLC
[6] = test system: IGROV1 ovarian
[7] = test system: UACC-62 melanoma
[8] = test system: SF-539 CNS
[9] = test system: BT-549 breast
[10] = test system: HL-60(TB) leukemia

Structure (SMILES)	GI50 [1]	TGI [1]	GI50 [2]	TGI [2]	GI50 [3]	TGI [3]	GI50 [4]	TGI [4]	GI50 [5]	TGI [5]	GI50 [6]	TGI [6]	GI50 [7]	TGI [7]	GI50 [8]	TGI [8]	GI50 [9]	TGI [9]	GI50 [10]	TGI [10]
CN(CC(=O)N(Cc1ccc(C2CCCCC2)cc1)c1ccc(C(=O)O)cc1)S(=O)(=O)c1c(F)c(F)c(F)c(F)c1F	2.49 µM	5.51 µM	1.85 µM	3.59 µM	2.09 µM	4.59 µM	1.93 µM	4.31 µM	1.63 µM	3.58 µM	2.08 µM	4.46 µM	1.92 µM	3.46 µM	1.69 µM	3.26 µM	2.23 µM	4.36 µM	2.08 µM	4.48 µM
C=CC(=O)N1CC2(CC(n3nc(-c4ccc5c(cnn5C)c4)c(-c4c(Cl)c(C)cc5[nH]ncc45)c3C)C2)C1	2.63 µM	8.75 µM	4.5 µM	20 µM		19.5 µM	3.95 µM	14.3 µM	3.23 µM	11.1 µM	2.76 µM	8.18 µM	1.94 µM	4.04 µM	2.15 µM	5.17 µM	2.57 µM	7.9 µM	2.58 µM	9.27 µM
Cn1ncc(Cl)c1-c1cc(C(=O)N[C@H](CN)Cc2ccc(F)c(F)c2)oc1Cl	5.91 µM and 2.29 µM	24.7 µM and > 10 µM	3.36 µM and 2.08 µM	17.1 µM and > 10 µM	2.14 µM and 2.7 µM	14 µM and > 10 µM	1.9 µM and 0.87 µM	14.2 µM and > 5.2 µM	2.77 µM	> 10 µM	0.0268 µM and 0.0201 µM	3.62 µM and 1.43 µM	0.625 µM and 0.494 µM	3.04 µM and 2.65 µM	0.161 µM and 0.121 µM	3.22 µM and 2.14 µM	0.511 µM and 0.412 µM	3.71 µM and 3.02 µM	2.9 µM and 2.05 µM	9.62 µM and 6.76 µM
Cc1cc([N+](=O)[O-])c2ccccc2[n+]1[O-]	0.571 µM and 0.927 µM	3.27 µM and 4.62 µM	0.396 µM and 0.405 µM	5.84 µM and 5.82 µM	0.188 µM and 0.25 µM	0.835 µM and 1.13 µM	0.541 µM and 0.627 µM	3.92 µM and 2.35 µM	2.77 µM	12 µM	2.58 µM and 3.26 µM	11.9 µM and 10.3 µM	0.252 µM and 0.254 µM	0.89 µM and 0.833 µM	0.303 µM and 0.214 µM	1.2 µM and 0.867 µM	0.216 µM and 0.388 µM	0.879 µM and 1.63 µM	2.11 µM and 1.65 µM	6.48 µM and 5.51 µM
COc1cccc(/C=C2\COc3ccc(-c4ccccc4)cc3C2=O)c1	2.57 µM	6.79 µM	3.52 µM	11.6 µM	3.91 µM	9.58 µM	2.55 µM	6.42 µM	4.8 µM	> 100 µM	3.12 µM	8.39 µM	3.06 µM	12.8 µM	2.05 µM	4.12 µM	2.09 µM	4.94 µM	2.52 µM	> 100 µM
CSc1ccc2c(c1)C(N1CCN(C)CC1)Cc1ccccc1S2 (stereo not given)	1.8 µM	24.9 µM and 3.94 µM	2.1 µM	14.7 µM and 5.55 µM	1.8 µM	23.6 µM and 3.29 µM	1.62 µM	13.3 µM and 3.33 µM	2.08 µM	8.64 µM and 7.13 µM		7.3 µM and 4.91 µM	1.8 µM	4.2 µM and 3.3 µM	1.87 µM	18.9 µM and 3.61 µM	2.84 µM	17.6 µM and 9.3 µM	1.94 µM	10.7 µM and 3.81 µM
COc1cc2nc3cc([N+](=O)[O-])ccc3c(NCCNCC(C)(C)O)c2cc1OC	1.28 µM	4.05 µM	0.491 µM	2.54 µM	0.953 µM	3.26 µM	2.42 µM	11 µM	1.72 µM	5.7 µM	0.457 µM	2.16 µM			0.566 µM	2.12 µM	1.84 µM	4.14 µM	2.83 µM	7.49 µM
CCOC(=O)COc1ccc2c(C)cc(=O)oc2c1		> 100 µM		> 100 µM		> 100 µM		> 100 µM		> 100 µM		> 100 µM		> 100 µM		> 100 µM		> 100 µM		> 100 µM
CC(=O)c1c(C)[nH]c(-c2nc3ccc(N4CCN(C)CC4)cc3[nH]2)c1-c1ccccc1	1.93 µM	49.5 µM	5.24 µM	39.6 µM	1.01 µM	33.5 µM	0.212 µM	12.8 µM	2.03 µM	> 100 µM	1.12 µM	14.4 µM	0.274 µM	12.7 µM	1.47 µM	17.5 µM	8.81 µM	29.8 µM	0.261 µM	12.7 µM
CSC(=Nc1ccccc1)/N=C(\SCc1ccccc1)N(C)C		3.1 µM		2.48 µM		3.31 µM		2.79 µM		3.33 µM		2.45 µM		1.87 µM		2.57 µM		2.86 µM		> 100 µM
CC[C@H](C)[C@H](NC(=O)CN(C)C)C(=O)N(C)[C@H](C[C@@H](OC(C)=O)c1nc(C(=O)NC23CC(C(=O)OC)(C2)C3)cs1)C(C)C	> 25 µM	> 25 µM	0.831 µM	> 25 µM	2.97 µM	> 25 µM	12.3 µM	> 25 µM	1.53 µM	> 25 µM	0.412 µM	> 25 µM	0.237 µM	> 25 µM	0.307 µM	1.56 µM	0.151 µM	> 13.9 µM	0.0455 µM	0.181 µM
Nc1ncnc2c1ncn2C1OC(CO)C(O)C1N (stereo not given)		> 100 µM		> 100 µM		> 100 µM		> 100 µM		> 100 µM		> 100 µM		> 100 µM		> 100 µM		> 100 µM		> 100 µM
CCN(CC)Cc1cc2[nH]c3c4ccc(Cl)cc4ncc3c2cc1OC	14.4 µM and 15.1 µM	28.8 µM and 28.5 µM	3.33 µM and 2.9 µM	10 µM and 9.2 µM	5.41 µM and 2.01 µM	11.7 µM and 9.34 µM	3.36 µM and 2.3 µM	9.14 µM and 9.8 µM	12.1 µM and 11.8 µM	24.9 µM and 24.4 µM	2.13 µM and 3.42 µM	12.4 µM and 13.6 µM	15.5 µM and 1.81 µM	29.4 µM and 3.46 µM	1.61 µM and 1.78 µM	2.97 µM and 3.25 µM	13.7 µM and 16 µM	27.2 µM and 29.6 µM	5.13 µM and 2.24 µM	
CN(C)C(=S)SCC(=O)Nc1ccccc1		> 100 µM		> 100 µM		> 100 µM		> 100 µM		> 100 µM		> 100 µM		> 100 µM				> 100 µM		> 100 µM
CC1=C(C(=O)Nc2ccc(Cl)c(C(=O)OC(C)C)c2)SCCO1		> 77.4 µM		> 89.9 µM		> 100 µM		> 100 µM		> 95.5 µM		> 81.1 µM		93.2 µM		> 97 µM		> 100 µM		51 µM
CN1C(=O)C2(c3ccccc31)N(c1ccc(Cl)cc1)C(=O)C2(c1ccccc1)c1ccccc1 (stereo not given)	> 100 µM	> 100 µM	> 100 µM	> 100 µM	> 100 µM	> 100 µM	> 100 µM	> 100 µM	53.3 µM	> 100 µM	> 100 µM	> 100 µM	39.7 µM	> 100 µM	> 100 µM	> 100 µM	> 100 µM	> 100 µM	3.42 µM	16.5 µM
COc1cc2c(=O)[nH]c3cc([N+](=O)[O-])ccc3c2cc1[N+](=O)[O-]	3.25 µM	39.2 µM	4.42 µM	88 µM	7.38 µM	36.2 µM	6.18 µM	> 100 µM	7.08 µM	> 100 µM	3.87 µM	> 100 µM	4.55 µM	> 100 µM	4.65 µM	> 100 µM	7.89 µM	> 100 µM	> 100 µM	> 100 µM
O=C(Nc1nc2ccccc2s1)Nc1ccc([N+](=O)[O-])cc1Cl	5.58 µM	13.1 µM	4.49 µM	18.6 µM	7.61 µM	16.6 µM	6.25 µM	16.2 µM	11 µM	45.1 µM	4.71 µM	10.4 µM	3.1 µM	8.94 µM	1.69 µM	3.11 µM	2.04 µM	7.68 µM	15.2 µM	> 54.7 µM
CC[C@H](C)[C@H](NC(=O)[C@H]1CCCCN1C)C(=O)N(C)[C@H](C[C@@H](OC(C)=O)c1nc(C(=O)N[C@@H](Cc2ccccc2)C[C@H](C)C(=O)O)cs1)C(C)C	0.0113 µM and < 0.00165 µM	< 0.00165 µM	0.000834 µM and 0.00165 µM	> 16.5 µM	0.000909 µM and 0.00165 µM	> 16.5 µM	0.00197 µM		0.000979 µM and 0.00165 µM	> 16.5 µM	0.00604 µM and 0.00165 µM	> 16.5 µM		> 16.5 µM	0.000576 µM and < 0.00165 µM	0.00596 µM and < 0.00165 µM	0.000676 µM and < 0.00165 µM		0.000394 µM and < 0.00165 µM	0.00267 µM and < 0.00165 µM
CN1CSC(=S)N(Cc2ccccc2)C1	70.5 µM	> 100 µM	14.8 µM	36.1 µM	18.6 µM	> 100 µM	34.6 µM	> 100 µM	30.3 µM	> 100 µM	10.3 µM	27.5 µM	13.4 µM	36 µM	4.46 µM	21.3 µM	17.1 µM	70.1 µM	4.03 µM	97.3 µM
CCN1CCN(C(=O)[C@]23CCC(C)(C)C[C@@H]2C2=CC[C@@H]4[C@@]5(C)C/C(=C/c6ccncc6)C(=O)C(C)(C)[C@@H]5CC[C@@]4(C)[C@]2(C)CC3)CC1	2 µM	4.31 µM			1.72 µM	3.3 µM	1.45 µM	2.95 µM	1.49 µM	3.01 µM	1.6 µM	3.13 µM	1.46 µM	2.82 µM	1.64 µM	3.04 µM	1.53 µM	3.04 µM	1.04 µM	4.4 µM
CN1CCN(CCCOc2cccc3nc(Nc4ccc(Cl)c(C(F)(F)F)c4)ccc23)CC1	2.07 µM	4.89 µM	1.85 µM	3.66 µM	1.7 µM	3.32 µM	1.67 µM	3.19 µM	1.82 µM	3.98 µM	1.85 µM	3.6 µM	1.72 µM	3.27 µM	1.58 µM	3.02 µM	1.71 µM	3.31 µM	1.87 µM	4.03 µM
Cn1c(-c2c(N)n(CCCN3CCOCC3)c3nc(C#N)c(C#N)nc23)nc2ccccc21	27.8 µM	> 52.9 µM	7.16 µM	62.2 µM	20.6 µM	77.6 µM	7.52 µM	> 49.6 µM	> 57 µM	> 100 µM	> 100 µM	> 100 µM	> 34.5 µM	> 100 µM	1.85 µM	7 µM	16.1 µM	> 64.5 µM	0.704 µM	2.08 µM
O=C1Cc2cc(C(=O)NC3C[C@H]4CC[C@@H](C3)N4S(=O)(=O)CC3CCN(CCCC(F)(F)F)CC3)c(Cl)cc2N1 (stereo not given in full)	> 100 µM	> 100 µM	> 100 µM	> 100 µM	> 100 µM	> 100 µM	> 100 µM	> 100 µM	> 100 µM	> 100 µM	> 100 µM	> 100 µM	> 100 µM	> 100 µM	> 100 µM	> 100 µM	> 100 µM	> 100 µM	> 100 µM	> 100 µM
NS(=O)(=O)OCCCCCCCOS(N)(=O)=O		887 µM		1290 µM		676 µM		594 µM		847 µM		937 µM		412 µM		645 µM		430 µM		469 µM
c1cc2c(cn1)Nc1ccncc1S2	49.2 µM	> 100 µM	30.5 µM	> 100 µM	14.9 µM	57.4 µM	> 100 µM	> 100 µM	55.8 µM	> 100 µM			41.9 µM	> 100 µM	33.8 µM	> 100 µM	59.5 µM	> 100 µM	20.5 µM	68.5 µM
CCOC(=O)c1cnc2c(C)cccc2c1Nc1ccc(C(C)=O)cc1	7.01 µM	> 100 µM	18.3 µM	64.2 µM	39.7 µM	> 100 µM	79 µM	> 100 µM			25.5 µM	> 100 µM	11.4 µM	> 100 µM	34.3 µM	> 100 µM	16.1 µM	59.3 µM	> 100 µM	> 100 µM
